From publication PMC3579312 (Journal of Medicinal Chemistry, 2013)
“Also recorded” adds a separate entry of the source.

Legend:
[1] = tested on: Trypanosoma brucei brucei bloodstream-form (strain 427); assay: Trypanocidal activity, Alamar Blue viability, 72 h; type: cell-based; conditions: for Selectivity Index: HeLa EC50 versus T. brucei EC50; for combined trypanocidal action of 22s with nifurtimox: Figure 4
22s-resistant T. brucei = assay: Trypanocidal activity against cloned 22s-resistant cell line; type: cell-based, Trypanosoma brucei; conditions: 22s in 22s-resistant cells versus nifurtimox in wild-type
[2] = tested on: nifurtimox-resistant T. brucei; assay: Trypanocidal activity against cloned nifurtimox-resistant cell line; type: cell-based, Trypanosoma brucei
Chagas’ disease = conditions: patients with Chagas’ disease; cited from earlier work
[3] = tested on: human African trypanosomiasis; conditions: cited from earlier work

SMILES | Selectivity Index [1] | also measured
COC(=O)c1ccc([N+](=O)[O-])o1 [Compound 19] |  | activity against T. brucei (in words) [1]: inactive
O=C(Nc1ccc(Cl)cc1)c1ccc([N+](=O)[O-])o1 [Compound 22i] | >48 | 
O=C(Nc1ccc(O)cc1)c1ccc([N+](=O)[O-])o1 [Compound 22p] | >50 | 
O=C(Nc1cc(C(F)(F)F)cc(C(F)(F)F)c1)c1ccc([N+](=O)[O-])o1 [Compound 22n] | >78 | 
CCNC(=O)c1cc(CC)sc1NC(=O)c1ccc([N+](=O)[O-])o1 [Compound 12e] | >136 | 
O=C(Nc1ccc(O)c(C(F)(F)F)c1)c1ccc([N+](=O)[O-])o1 [Compound 22r] | >9 | 
CCc1cc(C(N)=O)c(NC(=O)c2cccc([N+](=O)[O-])c2)s1 [Compound 20b] | >8 | 
COC(=O)c1ccc(NC(=O)c2ccc([N+](=O)[O-])o2)cc1 [Compound 22j] | >29 | 
CCc1cc(C(N)=O)c(N)s1 [Compound 13g] |  | activity against T. brucei (in words) [1]: inactive
CCOC(=O)c1cc(CC)sc1NC(=O)c1ccc([N+](=O)[O-])o1 [Compound 12a, Ethyl 5-Ethyl-2-(5-nitrofuran-2-carboxamido)thiophene-3-carboxylate] | >640 | 
C=CCOc1ccc(NC(=O)c2ccc([N+](=O)[O-])o2)cc1C(F)(F)F [Compound 22s, N-(4-(Allyloxy)-3-(trifluoromethyl)phenyl)-5-nitrofuran-2-carboxamide] | >8330 | combined trypanocidal action of 22s with nifurtimox ([1]; nifurtimox <700 nM, EC50 of 22s): synergy can be observed; also recorded: synergistic relationship; combined trypanocidal action of 22s with nifurtimox ([1]; nifurtimox above 700 nM): distinct lack of synergy; potency in 22s-resistant cells relative to nifurtimox in wild-type T. brucei (22s-resistant T. brucei): ~70 times
O=C(Nc1cccc(Br)c1)c1ccc([N+](=O)[O-])o1 [Compound 22f] | >192 | 
COc1ccc(NC(=O)c2ccc([N+](=O)[O-])o2)cc1C [Compound 22v] | >525 | 
O=C(Nc1ccccc1)c1ccc([N+](=O)[O-])o1 [Compound 22b] | >710 | 
C=CCOc1ccc(N(CC=C)C(=O)c2ccc([N+](=O)[O-])o2)cc1C(F)(F)F [Compound 22t] | >9 | 
O=C(Nc1ccc(C(F)(F)F)cc1)c1ccc([N+](=O)[O-])o1 [Compound 22h, 5-Nitro-N-(4-(trifluoromethyl)phenyl)furan-2-carboxamide] | >158 | 
COc1ccc(NC(=O)c2ccc([N+](=O)[O-])o2)cc1 [Compound 22k] | >261 | 
CCOC(=O)c1ccsc1NC(=O)c1ccc([N+](=O)[O-])o1 [Compound 12k] | >278 | 
COc1cccc(NC(=O)c2ccc([N+](=O)[O-])o2)c1 [Compound 22g] | >345 | 
COc1cc(NC(=O)c2ccc([N+](=O)[O-])o2)cc(C(F)(F)F)c1 [Compound 22m] | >752 | 
CCc1cc(C(N)=O)c(NC(=O)c2ccc([N+](=O)[O-])o2)s1 [Compound 12g, N-(3-Carbamoyl-5-ethylthiophen-2-yl)-5-nitrofuran-2-carboxamide] | >1155 | 
CC1CS(=O)(=O)CCN1/N=C/c1ccc([N+](=O)[O-])o1 (stereo not shown) [Nifurtimox (5), Nifurtimox] |  | EC50 ([1]; read-out: T. brucei EC50, wild-type bloodstream form, 72 h): 2.1 ± 0.2 µM; EC50 ([2]; Trypanosoma brucei, read-out: EC50, nifurtimox resistant cells): 20.9 ± 1.7 µM; fold increase in EC50 (less sensitive) versus wild-type cells ([2]; nifurtimox-resistant versus wild-type): 9–10 fold; treatment cessation due to adverse side effects, share of patients (Chagas’ disease): over 30%
CCOC(=O)c1cc(CC)sc1NC(=O)c1ccco1 [Compound 18a] |  | activity against T. brucei (in words) [1]: no activity
CCc1cc(C(=O)NCCO)c(NC(=O)c2ccc([N+](=O)[O-])o2)s1 [Compound 12h] | >253 | 
O=C(NCc1cccc(C(F)(F)F)c1)c1ccc([N+](=O)[O-])o1 [Compound 22l, 5-nitro-N-(3-(trifluoromethyl)benzyl)furan-2-carboxamide] | >1149 | 
Nc1nc(N)nc(Nc2ccc([As]3SCC(CO)S3)cc2)n1 (stereo not shown) [Melarsoprol (3), melarsoprol] |  | death, share of cases ([3]; HAT patients): ~6%; treatment failure rate ([3]; in certain areas): ≤ 30%
CCCCc1cc(C(=O)OCC)c(NC(=O)c2ccc([N+](=O)[O-])o2)s1 [Compound 12b] | >160 | 
CCCCNC(=O)c1cc(CC)sc1NC(=O)c1ccc([N+](=O)[O-])o1 [Compound 12f] | >60 | 
O=C(Nc1cccs1)c1ccc([N+](=O)[O-])o1 [Compound 12j] | >322 | 
CCCCOC(=O)c1cc(CC)sc1NC(=O)c1ccc([N+](=O)[O-])o1 [Compound 12d] | >625 | 
